# From ChEMBL document CHEMBL4190174 (2016)
# Activity calls are given as the source filed them. The calls are words filed in the database; no cut-off is given here.
# Tests used:
# [1] = tested on: SNB-19; experiment: Growth inhibition of empty vector transfected human SNB19 cells after 7 days by MTT assay; type: functional; settings: SNB-19, 168 h
# [2] = tested on: SNB-19; experiment: Growth inhibition of MGMT-transfected human SNB19 cells after 7 days by MTT assay; type: functional; settings: SNB-19, 168 h
# [3] = tested on: U373 MG; experiment: Growth inhibition of empty vector transfected human U373 cells after 7 days by MTT assay; type: functional, U-373MG ATCC; settings: 168 h
# [4] = tested on: U373 MG; experiment: Growth inhibition of MGMT-transfected human U373 cells after 7 days by MTT assay; type: functional, U-373MG ATCC; settings: 168 h
# [5] = tested on: dsDNA; experiment: Induction of double stranded DNA break in MGMT-transfected human U373 cells assessed as increase in gamma-H2AX level at 100 uM after 72 hrs by flow cytometry relative to control; type: cell-based
# [6] = tested on: Escherichia coli; experiment: Induction of Escherichia coli linearized pBR322 DNA alkylation at clusters of 3/5 guanines using 5'-end labeled [gamma32P]ATP primer after 2 hrs by PAGE based taq polymerase stop assay
# [7] = tested on: DNA; experiment: Induction of Escherichia coli pBR322 DNA cleavage assessed as covalent modification at N-7 guanine at 10 to 1000 uM after 2 hrs by PAGE based autoradiographic method; type: nucleic-acid assay
# [8] = tested on: dsDNA; experiment: Induction of double stranded DNA break in MGMT-transfected human U373 cells assessed as increase in gamma-H2AX level at 100 uM after 72 hrs by flow cytometry; type: cell-based
# [9] = tested on: Panel NCI-60 (60 carcinoma cell lines); experiment: Growth inhibition of human NCI60 cells after 48 hrs by MTT assay; type: functional
# [10] = tested on: SNB-19; experiment: Ratio of GI50 for MGMT-transfected human SNB19 cells to GI50 for empty vector transfected human SNB19 cells; type: functional
# [11] = tested on: U373 MG; experiment: Ratio of GI50 for MGMT-transfected human U373 cells to GI50 for empty vector transfected human U373 cells; type: functional, U-373MG ATCC
# [12] = Growth inhibition of human SNB19VR cells by MTT assay; type: functional
# [13] = Growth inhibition of human U373VR cells by MTT assay; type: functional
# [14] = tested on: HCT-116; experiment: Growth inhibition of human HCT116 cells harboring hMLH1 mutation; type: functional
# [15] = tested on: DLD-1; experiment: Growth inhibition of human DLD1 cells harboring hMSH6 mutation; type: functional
# [16] = tested on: DNA; experiment: Induction of Escherichia coli pBR322 DNA interstrand cross linking using 5'-end labeled [gamma32P]ATP primer at <=1000 uM after 2 to 40 hrs by PAGE based autoradiographic method; type: nucleic-acid assay
# [17] = tested on: HCT-116; experiment: Growth inhibition of human HCT116 cells harboring hMLH1 mutation relative to temozolomide; type: functional
# [18] = tested on: DLD-1; experiment: Growth inhibition of human DLD1 cells harboring hMSH6 mutation relative to temozolomide; type: functional
# [19] = tested on: SNB-19; experiment: Potency index, ratio of temozolomide GI50 to compound GI50 for empty vector transfected human SNB19 cells; type: functional
# [20] = tested on: U373 MG; experiment: Potency index, ratio of temozolomide GI50 to compound GI50 for empty vector transfected human U373 cells; type: functional, U-373MG ATCC
# [21] = tested on: SNB-19; experiment: Potency index, ratio of temozolomide GI50 to compound GI50 for MGMT-transfected human SNB19 cells; type: functional
# [22] = tested on: U373 MG; experiment: Potency index, ratio of temozolomide GI50 to compound GI50 for MGMT-transfected human U373 cells; type: functional, U-373MG ATCC
smiles,measurement,setting,value
NC(=O)c1nc[nH]c1N/N=N/CC(F)(F)F,GI50,[1],68.8 µM
same,GI50,[2],131 µM
same,GI50,[3],209 µM
same,GI50,[4],423 µM
C#CC/N=N/Nc1[nH]cnc1C(N)=O,fold change (FC),[5],> 2
same,GI50,[1],39.1 µM
same,GI50,[2],33.9 µM
same,GI50,[3],32 µM
same,GI50,[4],35.6 µM
same,Activity,[6],Dose-dependent effect
same,Activity,[7],Active
same,Activity,[8],Active
C=CCn1nnc2c(C(N)=O)ncn2c1=O,GI50,[1],258 µM
same,GI50,[2],239 µM
same,GI50,[3],141 µM
same,GI50,[4],199 µM
Cn1nnc2c(C(N)=O)ncn2c1=O [TEMOZOLOMIDE],GI50,[1],45.6 µM
same,GI50,[2],526 µM
same,GI50,[3],72.9 µM
same,GI50,[4],395 µM
same,GI50,[9],> 100 µM
same,RatioGI50,[10],11
same,RatioGI50,[11],5
same,GI50,[12],280 µM
same,GI50,[13],289 µM
same,GI50,[14],> 500 µM
same,GI50,[15],> 500 µM
same,Activity,[16],inactive
CS(=O)(=O)Cn1nnc2c(C(N)=O)ncn2c1=O,GI50,[1],13.8 µM
same,GI50,[2],18.3 µM
same,GI50,[3],20.2 µM
same,GI50,[4],7.5 µM
COC(=O)C/N=N/Nc1[nH]cnc1C(N)=O,GI50,[1],47.7 µM
same,GI50,[2],49.7 µM
same,GI50,[3],32.6 µM
same,GI50,[4],46.4 µM
NC(=O)Cn1nnc2c(C(N)=O)ncn2c1=O,GI50,[1],38 µM
same,GI50,[2],95.3 µM
same,GI50,[3],65.4 µM
same,GI50,[4],72.3 µM
N#CC/N=N/Nc1[nH]cnc1C(N)=O,GI50,[1],111 µM
same,GI50,[2],271 µM
same,GI50,[3],106 µM
same,GI50,[4],242 µM
CN(C)C(=O)Cn1nnc2c(C(N)=O)ncn2c1=O,GI50,[1],67.7 µM
same,GI50,[2],73.4 µM
same,GI50,[3],85.1 µM
same,GI50,[4],92.5 µM
CC(C)(C)C(=O)OCn1nnc2c(C(N)=O)ncn2c1=O,GI50,[1],45 µM
same,GI50,[2],28 µM
same,GI50,[3],13.2 µM
same,GI50,[4],28.9 µM
NC(=O)c1ncn2c(=O)n(CO)nnc12,GI50,[1],46.2 µM
same,GI50,[2],42.1 µM
NC(=O)c1ncn2c(=O)n(CC(=O)O)nnc12,GI50,[1],265 µM
same,GI50,[2],296 µM
same,GI50,[3],69.5 µM
same,GI50,[4],140 µM
C#CCn1nnc2c(C(N)=O)ncn2c1=O,fold change (FC),[5],> 2
same,GI50,[1],35.6 µM
same,GI50,[2],37.8 µM
same,GI50,[3],37.6 µM
same,GI50,[4],36.1 µM
same,GI50,[12],< 50 µM
same,GI50,[13],< 50 µM
same,fold change (FC),[17],>10
same,fold change (FC),[18],>10
same,Activity,[6],Dose-dependent effect
same,Activity,[7],Active
same,Activity,[16],inactive
same,Activity,[8],Active
NC(=O)c1nc[nH]c1N/N=N/CC1CC1,GI50,[1],> 500 µM
same,GI50,[2],> 500 µM
same,GI50,[3],> 500 µM
same,GI50,[4],> 500 µM
C[Si](C)(C)C#CCn1nnc2c(C(N)=O)ncn2c1=O,GI50,[1],39.1 µM
same,GI50,[2],39.5 µM
same,GI50,[3],30.3 µM
same,GI50,[4],30.7 µM
NC(=O)c1ncn2c(=O)n(CCCl)nnc12 [MITOZOLOMIDE],GI50,[1],10 µM
same,GI50,[2],68.4 µM
same,GI50,[3],22 µM
same,GI50,[4],40.3 µM
same,RatioGI50,[10],>2
same,RatioGI50,[11],>2
same,RatioGI50,[19],>3
same,RatioGI50,[20],>3
same,RatioGI50,[21],10
same,RatioGI50,[22],10
NC(=O)c1ncn2c(=O)n(CC3CC3)nnc12,GI50,[1],286 µM
same,GI50,[2],223 µM
same,GI50,[3],386 µM
same,GI50,[4],149 µM
NC(=O)c1ncn2c(=O)n(C3CC3)nnc12,GI50,[1],428 µM
same,GI50,[2],> 500 µM
same,GI50,[3],306 µM
same,GI50,[4],360 µM
NC(=O)c1ncn2c(=O)n(CCC(=O)O)nnc12,GI50,[1],> 250 µM
same,GI50,[2],> 250 µM
same,GI50,[3],> 250 µM
same,GI50,[4],> 250 µM
NC(=O)c1ncn2c(=O)n(COCc3ccccc3)nnc12,GI50,[1],52.2 µM
same,GI50,[2],48.5 µM
same,GI50,[3],16.5 µM
same,GI50,[4],28.8 µM
CC(=O)OCn1nnc2c(C(N)=O)ncn2c1=O,GI50,[1],48.3 µM
same,GI50,[2],40.4 µM
same,GI50,[3],11.8 µM
same,GI50,[4],39.4 µM
CNC(=O)Cn1nnc2c(C(N)=O)ncn2c1=O,GI50,[1],65.8 µM
same,GI50,[2],246 µM
same,GI50,[3],260 µM
same,GI50,[4],263 µM
CCOC(=O)Cn1nnc2c(C(N)=O)ncn2c1=O,GI50,[1],52.4 µM
same,GI50,[2],61.1 µM
same,GI50,[3],63.2 µM
same,GI50,[4],55.6 µM
CC#CCn1nnc2c(C(N)=O)ncn2c1=O,GI50,[1],39.6 µM
same,GI50,[2],37.6 µM
same,GI50,[3],36.5 µM
same,GI50,[4],33 µM
CCOC(=O)C=[N+]=[N-],GI50,[1],> 800 µM
same,GI50,[2],> 800 µM
same,GI50,[3],> 800 µM
same,GI50,[4],> 800 µM
NC(=O)CCn1nnc2c(C(N)=O)ncn2c1=O,GI50,[1],321 µM
same,GI50,[2],398 µM
same,GI50,[3],138 µM
same,GI50,[4],355 µM
NC(=O)c1ncn2c(=O)n(CCl)nnc12,GI50,[1],34.6 µM
same,GI50,[2],31 µM
same,GI50,[3],29.3 µM
same,GI50,[4],24.4 µM
COCC/N=N/Nc1[nH]cnc1C(N)=O,GI50,[1],> 500 µM
same,GI50,[2],> 500 µM
same,GI50,[3],> 500 µM
same,GI50,[4],> 500 µM
COCn1nnc2c(C(N)=O)ncn2c1=O,GI50,[1],30.8 µM
same,GI50,[2],37.9 µM
same,GI50,[3],26 µM
same,GI50,[4],33.1 µM
CCOC(=O)C/N=N/Nc1[nH]cnc1C(N)=O,GI50,[1],33.6 µM
same,GI50,[2],37.4 µM
same,GI50,[3],30.3 µM
same,GI50,[4],23.4 µM
NC(=O)c1nc[nH]c1N/N=N/CC(F)F,GI50,[1],68.8 µM
same,GI50,[2],70.3 µM
same,GI50,[3],205 µM
same,GI50,[4],248 µM
CSCn1nnc2c(C(N)=O)ncn2c1=O,GI50,[1],107 µM
same,GI50,[2],151 µM
same,GI50,[3],59 µM
same,GI50,[4],56.5 µM
NC(=O)c1ncn2c(=O)n(CCO)nnc12,GI50,[1],204 µM
same,GI50,[2],417 µM
same,GI50,[3],288 µM
same,GI50,[4],322 µM
COC(=O)Cn1nnc2c(C(N)=O)ncn2c1=O,GI50,[1],47.5 µM
same,GI50,[2],49 µM
same,GI50,[3],32.1 µM
same,GI50,[4],46.4 µM
NC(=O)c1nc[nH]c1N/N=N/CCO,GI50,[1],441 µM
same,GI50,[2],> 500 µM
same,GI50,[3],383 µM
same,GI50,[4],336 µM
NC(=O)c1ncn2c(=O)n(CC(=O)N3CCOCC3)nnc12,GI50,[1],62.3 µM
same,GI50,[2],102 µM
same,GI50,[3],243 µM
same,GI50,[4],132 µM
NC(=O)c1nc[nH]c1N/N=N/C1CC1,GI50,[1],> 500 µM
same,GI50,[2],> 500 µM
same,GI50,[3],> 500 µM
same,GI50,[4],> 500 µM
CCOC(=O)CCn1nnc2c(C(N)=O)ncn2c1=O,GI50,[1],367 µM
same,GI50,[2],255 µM
same,GI50,[3],129 µM
same,GI50,[4],143 µM
C[S+]([O-])Cn1nnc2c(C(N)=O)ncn2c1=O (stereo unspecified),GI50,[1],26.8 µM
same,GI50,[2],20.1 µM
same,GI50,[3],13.7 µM
same,GI50,[4],14.4 µM
